Consider 18 compounds from ChEMBL document CHEMBL3351459, “Present status of quinoxaline motifs: excellent pathfinders in therapeutic medicine” (Eur J Med Chem, 2014).

pIC50: −log10 of the molar value. Values after ≈ are worked out from the molar mass of the structure shown.

One series has as its system Rattus norvegicus. The series is described as follows: Anti-inflammatory activity in Wistar rat at 100 mg/kg assessed as protection against edema formation dosed 1 hr before carrageenan challenge measured at end of 3rd hr by plethysmography. It counts as functional.
The nature of series [1]: Cytotoxicity against human HCT15 cells. Format: functional, cell-based. The note with it: HCT-15.
In a further series the test system is MDA-MB-468. Briefly: Cytotoxicity against human MDA-MB-468 cells. It counts as functional, cell-based.
Series [2] can be described thus: Cytotoxicity against human SKOV3 cells. The note with it: SK-OV-3. Format: functional, cell-based.
Another series relates to T47D. Briefly: Cytotoxicity against human T47D cells. Format: functional, cell-based.
The subject of series [3] is Mycobacterium tuberculosis. The series is described as follows: Antimycobacterial activity against Mycobacterium tuberculosis H37Rv. It counts as functional.
Series [4] in a line: Drug elimination in pig at 50 ppm. Format: ADME, organism-based, Sus scrofa. The note with it: in vivo, read-out: Drug excretion.
Series [5] relates to Leishmania infantum. Briefly: Antileishmanial activity against Leishmania infantum. It counts as functional, organism-based.
A short description of series [6]: Cytotoxicity against human MT4 cells assessed as reduction cell viability after 5 days by MTT assay. It counts as cell-based. A general note: Formazan colour is commonly taken as a measure of viable cells.
The subject of series [7] is Human immunodeficiency virus 1. Briefly: Antiviral activity against HIV1 3B infected in human MT4 cells assessed as inhibition of virus-induced cytopathic effect after 5 days by MTT assay. It counts as functional, organism-based. The following applies: Human immunodeficiency virus 1, 3B, MT4, 120 h. In general terms: Cytopathic effects are the visible damage that an infection or toxin causes in cultured cells.

Series [8] deals with Human immunodeficiency virus 1. Briefly: Antiviral activity against Human immunodeficiency virus 1. It counts as functional, organism-based.
Series [9] deals with Leishmania infantum. Briefly: Leishmanicidal activity against Leishmania infantum. It counts as functional, organism-based.
For a further series, the system named is Trichomonas vaginalis. Briefly: […] activity against Trichomonas vaginalis assessed as growth inhibition after 24 hrs. It counts as functional.
The target in another series is SRSF protein kinase 1 (Homo sapiens, UniProt Q96SB4). Briefly: Inhibition of SRPK1 kinase (unknown origin).
SRSF protein kinase 1, sequence (Q96SB4 whole entry): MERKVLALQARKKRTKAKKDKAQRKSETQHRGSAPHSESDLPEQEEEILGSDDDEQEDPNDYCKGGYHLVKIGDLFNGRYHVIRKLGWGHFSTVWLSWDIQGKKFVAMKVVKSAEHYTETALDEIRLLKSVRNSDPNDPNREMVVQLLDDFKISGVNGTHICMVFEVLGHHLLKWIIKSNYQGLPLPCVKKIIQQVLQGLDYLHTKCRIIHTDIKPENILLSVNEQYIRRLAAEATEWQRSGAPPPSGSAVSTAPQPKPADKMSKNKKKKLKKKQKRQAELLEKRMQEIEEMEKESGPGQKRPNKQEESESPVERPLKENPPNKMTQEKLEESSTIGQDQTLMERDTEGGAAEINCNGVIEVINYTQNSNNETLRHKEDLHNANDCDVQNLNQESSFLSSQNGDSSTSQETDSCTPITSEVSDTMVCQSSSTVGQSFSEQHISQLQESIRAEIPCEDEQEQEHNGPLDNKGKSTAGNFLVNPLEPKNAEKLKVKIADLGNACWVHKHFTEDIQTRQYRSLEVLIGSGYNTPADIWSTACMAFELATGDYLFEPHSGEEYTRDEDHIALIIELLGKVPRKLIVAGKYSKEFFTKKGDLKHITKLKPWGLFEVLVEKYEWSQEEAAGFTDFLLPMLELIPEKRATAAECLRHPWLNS
In a further series the test system is Leishmania amazonensis. Briefly: Antileishmanial activity against Leishmania amazonensis. Format: functional, organism-based.
A short description of series [10]: Elimination half life in iv dosed rat. It counts as ADME, organism-based. The note with it: in vivo, read-out: beta t1/2 (converted).
Series [11] in a line: Drug elimination in human patient kidney at starting dose of 9 mg/m2 administered as 5 or 20 mins intravenous infusion on days 1 to 5 every 21 days. It counts as ADME. The following applies: urine, read-out: Drug excretion.
The nature of series [12]: Elimination half life in iv dosed dog. It counts as ADME, organism-based, Canis lupus familiaris. The note with it: in vivo, read-out: beta t1/2 (converted).
Another series relates to Candida. Briefly: Antifungal activity against Candida assessed as growth inhibition. Format: functional.
The nature of series [13]: Primary phase half life in im dosed goat. Format: ADME, organism-based, Capra hircus. The note with it: in vivo, read-out: alphat1/2 (converted).
In the next series the test system is Plasmodium falciparum. The series is described as follows: Antimalarial activity against Plasmodium falciparum. Format: functional, organism-based.

On to `Cc1nc2ccccc2nc1OCC(=O)N/N=C/c1ccc(Cl)cc1`, for which, in the series with Rattus norvegicus, the inhibition in vivo (as a rule, the change of the read-out against control, counted positive when it falls) at 100 mg/kg turned out to be 65.9%.
Turning to `CCCCCNCc1ccc2c(c1)C(=O)c1nccnc1C2=O`, the negative logarithm of the IC50 (pIC50) (as a rule, the IC50 on a negative log10 scale, so that one unit is a factor of ten) in [1] is 7.30; in the series with MDA-MB-468, 6.70; in series [2] it was 6.40; with T47D it was 7.10.
As to `CCCNC(=O)c1c(C)[n+]([O-])c2ccc(Cl)cc2[n+]1[O-]`, the IC90 (as a rule, the concentration needed for an effect of 90%) in series [3] was less than 0.19 µg/mL.
For `COC(=O)N/N=C/c1c[n+]([O-])c2ccccc2[n+]1[O-]` [CARBADOX], the dose excreted in series [4] came to 90%.
In the series on Leishmania infantum [5], `N#Cc1c(NC(=O)C2CCCCC2)[n+]([O-])c2ccc(Cl)cc2[n+]1[O-]` gave a pIC50 of 5.60.
With `c1ccc(-c2nc3ccccc3nc2-c2ccccc2)cc1`, the CC50 (usually the concentration that lowers cell viability or growth by half) at 120 h in [6] turned out to be 15.3 µg/mL (≈ 54.1 µM). The IC50 (usually the concentration that inhibits the measured activity by half) in [7] is 3.84 µg/mL (≈ 13.6 µM).
`C=CCCCOc1cnc2cc(C)c(C)cc2n1`: it took 0.22 µg/mL (≈ 0.908 µM) to reach a half-maximal effect in series [8] (EC50).
Consider `N#Cc1c(NC(=O)N2CCN(c3ccc(C(F)(F)F)cc3)CC2)[n+]([O-])c2ccc(Cl)cc2[n+]1[O-]`, for which, in the series with Leishmania infantum [9], the pIC50 is 5.24.
In the case of `Cc1c(NCc2ccc(Cl)c(Cl)c2)[n+]([O-])c2cc(F)c(F)cc2[n+]1[O-]`, in the series on Trichomonas vaginalis, the minimal inhibitory concentration (MIC) (in general, the smallest concentration in the dilution series that meets the test's criterion for growth inhibition) stood at 6.25 µg/mL (≈ 16.2 µM).
Turning to `O=C(O)c1ccc2cc3nc(-c4cccs4)c(-c4cccs4)nc3cc2c1`, the pIC50 on SRSF protein kinase 1 is 7.40.
Turning to `N#Cc1c(NC(=O)CCCCl)[n+]([O-])c2ccc(Cl)cc2[n+]1[O-]`, in the series on Leishmania amazonensis, the pIC50 was 6.15.
Take `C[C@@H](Oc1ccc(Oc2cnc3ccc(Cl)cc3n2)cc1)C(=O)O` [R(+)XK469]: the half-life was 13.5 h in series [10] and 13.2 h in [12]. Also, the dose excreted in [11] was found to be 7%.
For the compound `Cc1cc2ncc(=O)n(CC(O)CO)c2cc1C` (centres undefined), the EC50 (in general, the concentration giving half of the maximal effect) in series [8] was 0.15 µg/mL (≈ 0.604 µM).
Take `O=c1[nH]c2cc3cccnc3c(Cl)c2nc1CBr`: in the series with Candida, the MIC came to 31.2 µg/mL (≈ 96.3 µM).
For the compound `Cc1c(C(=O)Nc2ccccc2)[n+]([O-])c2cc(Cl)c(Cl)cc2[n+]1[O-]`, the concentration for an effect of 90% (IC90) in series [3] is less than 6.25 µg/mL.
`CC(=O)c1c(C)[n+]([O-])c2ccccc2[n+]1[O-]` [MEQUINDOX]: the half-life in series [13] is 0.28 h.
For `[O-][n+]1c(Cl)c(OC2CCCCC2)nc2ccc(F)cc21`, in the series on Plasmodium falciparum, the negative-log IC50 (pIC50) was 5.39.
In series [3], `N#Cc1c(Nc2ccc(F)cc2)[n+]([O-])c2ccc(Cl)cc2[n+]1[O-]` registered an IC90 of less than 6.25 µg/mL.
